Measured values published in patent publication US20100048597A1 (Novartis AG, priority 2006, published 2010).

Assays:
neointima formation = conditions: rats; cited from earlier work
CDK7/cyclinH/MAT1 = target: T1, CDK7/cyclinH/MAT1 (Homo sapiens, UniProt P50613); test: CDK7/cyclinH/Mat1 kinase assay, IMAP fluorescence polarization; type: biochemical
T1 construct: purchased Millipore
Method: Kinase assays were performed on recombinant purified enzymes using the non-radioactive IMAP fluorescence polarization assay format.
Compound stocks were prepared and diluted in DMSO and were added to kinase reactions at a 1/100 dilution for a final concentration of 1% DMSO. The components were added together to final concentrations listed in the tables below and incubated for two hours at room temperature.
The reactions were stopped by addition of stop solution.
CDK9/CDK1/CDK7: final stop concentration is 1× Developer buffer (85% A/15% B), IMAP beads 1/400
The samples were allowed to incubate for one more hour at room temperature and then the fluorescence polarization was measured. The plate normalized millipolarization (mP) values were plotted against the log of compound concentration for each compound and IC50 values were calculated using the spotfire IC50 calculator and confirmed by visual analysis.

[1] = tested on: RNA Polymerase II CTD Serine2 Phosphorylation; test: H5 (Ser2) Ab High Content Screen: RNA Polymerase II CTD Serine2 Phosphorylation Assay in Hep3B cells; type: cell-based; conditions: Homo sapiens, 2 hours with compound, H5 antibody staining
Method: H5 (also referred as Ser2) Ab High Content Screen: RNA Polymerase II CTD Serine2 Phosphorylation Assay
1. Cells are plated into 384 well plates: 30 μl of Hep3B cells (4,000 cells/30 μl) in DMEM with 3% FBS are plated into wells of a tissue culture treated clear bottomed 384 well plate. Cells are allowed to adhere during an overnight incubation.
2. Cells are treated with compounds for two hours: 10 μl of DMEM with 3% FBS is added to each well with a final concentration of DMSO equal to 1%. Cells are incubated with compounds for 2 hours.
3. Cells are fixed and permeabilized. Cells are washed with 30 mM HEPES pH=7.3 then fixed in 4% paraformaldehyde in 30 mM HEPES pH=7.3 for one hour at room temperature. The fix is removed by washing the cells with Tris buffered saline (TBS) and the cells are permeabilized by incubation in TBS with 0.5% triton X-100 for 30 minutes at room temperature. Triton is removed by washing the cells with TBS.
4. […] Incubate primary H5 Ab (1/250 ) overnight at 4 degrees in TBS with 1% BSA and 0.1% Tween-20. The next day wash cells with TBS. […] Wash cells with PBS.
5. Measure staining using the In-cell Analyzer system from GE Healthcare.

CDK4 = CDK4 (Homo sapiens, UniProt P11802); test: CDK4 kinase assay (Table F); type: biochemical
CDK5 = CDK5 (Homo sapiens, UniProt Q00535); test: CDK5 kinase assay (Table F); type: biochemical
CDK1/cyclinB = target: T2, CDK1/cyclinB (Homo sapiens, UniProt P06493); test: CDK1/cyclinB kinase assay, IMAP fluorescence polarization; type: biochemical; conditions: read-out: CDK1 IC50
T2 construct: purchased Millipore
How it was run: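 IMAP fluorescence polarization assay on recombinant purified enzyme, compounds at final 1% DMSO. Reaction run 2 h at room temperature, stopped, held 1 h more before reading polarization.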

CDK9/cyclinT1 = target: T3, CDK9/cyclinT1 (Homo sapiens, UniProt P50750); test: CDK9/cyclinT1 kinase assay, IMAP fluorescence polarization; type: biochemical
T3 construct: purchased Millipore
How it was run: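 Recombinant purified enzyme complexes assayed by IMAP fluorescence polarization with 1% final DMSO, 2 h at room temperature; stopped with 1× Developer buffer (85% A/15% B) plus IMAP beads 1/400, then 1 h further at room temperature. IC50 from normalized mP versus log compound concentration.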

CDK2/cyclinA = target: T4, CDK2/cyclinA (Homo sapiens, UniProt P24941); test: CDK2/cyclinA kinase assay, IMAP fluorescence polarization; type: biochemical
T4 construct: purchased Millipore
How it was run: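 Recombinant purified enzyme reactions run 2 hours at room temperature with 1% DMSO final. Stopped with 1× Developer buffer (100% A) and IMAP beads 1/400, then 1 hour more before fluorescence polarization read. IC50 from mP values versus log concentration.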

T2 sequence (P06493 whole entry): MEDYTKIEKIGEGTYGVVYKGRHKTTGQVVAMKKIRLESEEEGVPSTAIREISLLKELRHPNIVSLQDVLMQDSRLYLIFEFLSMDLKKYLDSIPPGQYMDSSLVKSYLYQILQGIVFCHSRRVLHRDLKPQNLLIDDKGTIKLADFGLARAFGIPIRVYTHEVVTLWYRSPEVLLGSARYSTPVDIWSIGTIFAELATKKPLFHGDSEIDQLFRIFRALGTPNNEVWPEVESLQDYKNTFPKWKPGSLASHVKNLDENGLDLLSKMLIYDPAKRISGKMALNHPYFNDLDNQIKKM
T2 sequence (P14635 whole entry partner): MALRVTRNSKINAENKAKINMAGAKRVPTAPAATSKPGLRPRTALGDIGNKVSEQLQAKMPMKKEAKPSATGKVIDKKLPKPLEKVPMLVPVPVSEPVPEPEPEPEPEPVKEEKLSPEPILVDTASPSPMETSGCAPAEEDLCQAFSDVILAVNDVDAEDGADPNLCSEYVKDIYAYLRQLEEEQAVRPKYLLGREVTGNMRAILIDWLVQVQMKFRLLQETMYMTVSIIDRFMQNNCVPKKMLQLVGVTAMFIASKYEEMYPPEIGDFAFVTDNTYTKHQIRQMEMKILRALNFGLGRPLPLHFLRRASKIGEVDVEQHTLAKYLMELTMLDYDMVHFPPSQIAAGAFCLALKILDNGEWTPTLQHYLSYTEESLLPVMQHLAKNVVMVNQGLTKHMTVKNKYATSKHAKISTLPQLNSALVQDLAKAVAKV
T3 sequence (P50750 whole entry): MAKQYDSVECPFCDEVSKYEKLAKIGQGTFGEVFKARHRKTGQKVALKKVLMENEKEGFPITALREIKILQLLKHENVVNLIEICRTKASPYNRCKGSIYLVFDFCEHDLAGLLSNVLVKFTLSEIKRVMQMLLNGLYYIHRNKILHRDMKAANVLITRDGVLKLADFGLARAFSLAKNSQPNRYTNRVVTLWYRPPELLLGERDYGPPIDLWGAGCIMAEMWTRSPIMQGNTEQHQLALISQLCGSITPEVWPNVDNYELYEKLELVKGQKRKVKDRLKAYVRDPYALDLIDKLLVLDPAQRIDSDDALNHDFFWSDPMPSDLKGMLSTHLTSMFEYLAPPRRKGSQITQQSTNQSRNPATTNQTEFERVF
T3 sequence (O60563 whole entry partner): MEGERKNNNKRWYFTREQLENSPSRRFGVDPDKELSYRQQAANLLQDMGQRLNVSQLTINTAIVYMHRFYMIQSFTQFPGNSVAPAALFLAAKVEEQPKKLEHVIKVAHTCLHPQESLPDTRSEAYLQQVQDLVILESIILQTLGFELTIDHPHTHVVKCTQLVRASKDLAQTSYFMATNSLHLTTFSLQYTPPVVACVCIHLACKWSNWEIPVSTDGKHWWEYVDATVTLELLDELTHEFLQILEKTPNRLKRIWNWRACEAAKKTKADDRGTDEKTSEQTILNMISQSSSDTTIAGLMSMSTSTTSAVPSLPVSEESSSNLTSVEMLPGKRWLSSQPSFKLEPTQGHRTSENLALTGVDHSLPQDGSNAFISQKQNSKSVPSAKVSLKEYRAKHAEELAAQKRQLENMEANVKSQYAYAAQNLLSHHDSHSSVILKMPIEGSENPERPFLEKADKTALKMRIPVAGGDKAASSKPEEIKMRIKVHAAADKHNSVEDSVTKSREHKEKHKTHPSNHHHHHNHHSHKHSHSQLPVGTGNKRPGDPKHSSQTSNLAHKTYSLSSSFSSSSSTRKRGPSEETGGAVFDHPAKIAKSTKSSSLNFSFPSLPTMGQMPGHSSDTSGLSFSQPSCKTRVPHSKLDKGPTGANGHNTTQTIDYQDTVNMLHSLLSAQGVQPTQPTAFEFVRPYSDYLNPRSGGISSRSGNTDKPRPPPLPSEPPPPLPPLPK
T1 sequence (P50613 whole entry): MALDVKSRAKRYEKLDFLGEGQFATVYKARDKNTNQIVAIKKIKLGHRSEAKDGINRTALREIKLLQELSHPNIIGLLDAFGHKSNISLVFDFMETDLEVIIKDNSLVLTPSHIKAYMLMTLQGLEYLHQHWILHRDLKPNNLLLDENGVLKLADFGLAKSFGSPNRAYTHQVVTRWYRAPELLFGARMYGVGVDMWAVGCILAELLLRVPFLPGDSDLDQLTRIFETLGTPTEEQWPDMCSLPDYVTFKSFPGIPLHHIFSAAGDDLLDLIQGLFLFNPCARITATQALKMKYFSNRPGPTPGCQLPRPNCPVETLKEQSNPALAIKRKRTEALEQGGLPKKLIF
T1 sequence (P51946 whole entry partner): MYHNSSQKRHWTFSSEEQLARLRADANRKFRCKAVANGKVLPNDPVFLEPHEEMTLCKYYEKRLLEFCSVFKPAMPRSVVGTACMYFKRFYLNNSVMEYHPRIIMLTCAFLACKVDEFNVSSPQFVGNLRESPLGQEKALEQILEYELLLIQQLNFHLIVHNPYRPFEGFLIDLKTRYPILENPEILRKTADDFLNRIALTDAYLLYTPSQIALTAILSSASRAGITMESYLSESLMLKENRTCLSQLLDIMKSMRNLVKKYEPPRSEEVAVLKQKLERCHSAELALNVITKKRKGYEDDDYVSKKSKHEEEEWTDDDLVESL
T1 sequence (P51948 whole entry partner): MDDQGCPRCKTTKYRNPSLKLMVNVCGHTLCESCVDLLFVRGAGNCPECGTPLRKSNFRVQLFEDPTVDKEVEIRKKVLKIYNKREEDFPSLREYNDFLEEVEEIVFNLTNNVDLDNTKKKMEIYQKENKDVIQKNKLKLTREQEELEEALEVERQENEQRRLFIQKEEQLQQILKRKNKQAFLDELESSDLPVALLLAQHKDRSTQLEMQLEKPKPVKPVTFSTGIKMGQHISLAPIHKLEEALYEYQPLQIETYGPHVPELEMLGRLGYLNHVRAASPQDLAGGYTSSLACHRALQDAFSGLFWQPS
Sequence of CDK4 (P11802 whole entry, species assumed): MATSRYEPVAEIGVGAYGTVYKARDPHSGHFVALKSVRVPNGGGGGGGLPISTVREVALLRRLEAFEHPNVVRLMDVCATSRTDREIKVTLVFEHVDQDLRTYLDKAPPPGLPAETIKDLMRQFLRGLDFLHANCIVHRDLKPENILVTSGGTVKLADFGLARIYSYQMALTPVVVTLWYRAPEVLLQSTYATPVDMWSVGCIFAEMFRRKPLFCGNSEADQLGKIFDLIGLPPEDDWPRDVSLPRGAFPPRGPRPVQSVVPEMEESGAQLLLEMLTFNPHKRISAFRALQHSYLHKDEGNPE
Sequence of CDK4 (P24385 whole entry partner, species assumed): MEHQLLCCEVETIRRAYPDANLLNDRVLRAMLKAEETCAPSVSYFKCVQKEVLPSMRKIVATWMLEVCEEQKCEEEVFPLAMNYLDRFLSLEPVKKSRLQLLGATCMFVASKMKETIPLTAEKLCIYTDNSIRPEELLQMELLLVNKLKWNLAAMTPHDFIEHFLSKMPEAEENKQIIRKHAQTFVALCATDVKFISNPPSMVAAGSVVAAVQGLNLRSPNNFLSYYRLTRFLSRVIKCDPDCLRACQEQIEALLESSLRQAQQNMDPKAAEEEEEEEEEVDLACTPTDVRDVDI
Sequence of CDK5 (Q00535 whole entry, species assumed): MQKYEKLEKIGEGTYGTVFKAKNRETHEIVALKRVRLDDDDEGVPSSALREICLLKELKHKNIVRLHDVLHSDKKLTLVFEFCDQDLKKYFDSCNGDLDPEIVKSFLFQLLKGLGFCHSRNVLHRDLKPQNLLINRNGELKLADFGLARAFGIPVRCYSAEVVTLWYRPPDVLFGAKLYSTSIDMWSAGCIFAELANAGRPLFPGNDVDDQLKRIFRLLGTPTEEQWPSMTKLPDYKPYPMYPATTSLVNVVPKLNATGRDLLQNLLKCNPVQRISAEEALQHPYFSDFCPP
Sequence of CDK5 (Q15078 whole entry partner, species assumed): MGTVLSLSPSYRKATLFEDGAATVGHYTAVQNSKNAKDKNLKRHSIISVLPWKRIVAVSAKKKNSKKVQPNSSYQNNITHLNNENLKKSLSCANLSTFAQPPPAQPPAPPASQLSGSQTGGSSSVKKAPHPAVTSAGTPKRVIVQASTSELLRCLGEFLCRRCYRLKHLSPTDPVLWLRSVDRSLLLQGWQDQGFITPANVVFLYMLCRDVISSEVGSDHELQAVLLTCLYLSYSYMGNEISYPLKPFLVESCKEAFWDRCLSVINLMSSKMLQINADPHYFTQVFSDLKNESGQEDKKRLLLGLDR

| IC50 (CDK7/cyclinH/MAT1) | IC50 [1] | IC50 (CDK4) | IC50 (CDK5) | IC50 (CDK1/cyclinB) | IC50 (CDK9/cyclinT1) | IC50 (CDK2/cyclinA) | SMILES | inhibition of neointima formation (neointima formation) |
| --- | --- | --- | --- | --- | --- | --- | --- | --- |
|  |  |  |  |  |  |  | COc1ccc(CNc2nc(N(CCO)CCO)nc3c2ncn3C(C)C)cc1 [CVT-313] | greater than 80% |
| < 5 µM | < 5 µM | < 5 µM | 15 to 50 µM | < 5 µM | < 5 µM | < 5 µM | CC(C)(CN)CNc1ncccc1-c1ccnc(Nc2cccc(Cl)c2)n1 [Compound 61, N-{3-[2-(3-Chloro-phenylamino)-pyrimidin-4-yl]-pyridin-2-yl}-2,2-dimethyl-propane-1,3-diamine] |  |
| < 5 µM | < 5 µM | 15 to 50 µM | < 5 µM | < 5 µM | < 5 µM | < 5 µM | OCCCNc1ncccc1-c1ccnc(Nc2cccc(Cl)c2)n1 [Compound 74, 3-{3-[2-(3-Chloro-phenylamino)-pyrimidin-4-yl]-pyridin-2-ylamino}-propan-1-ol] |  |
| < 5 µM | < 5 µM | 5 to 15 µM | < 5 µM | < 5 µM | < 5 µM | < 5 µM | Clc1cccc(Nc2nccc(-c3cccnc3NCCCn3ccnc3)n2)c1 [Compound 80, (3-Chloro-phenyl)-{4-[2-(3-imidazol-1-yl-propylamino)-pyridin-3-yl]-pyrimidin-2-yl}-amine] |  |
| > 50 µM | > 50 µM | 15 to 50 µM | < 5 µM | < 5 µM | < 5 µM | < 5 µM | COc1ncccc1-c1ccnc(Nc2cccc(C#N)c2)n1 [Compound 91, 3-[4-(2-Methoxy-pyridin-3-yl)-pyrimidin-2-ylamino]-benzonitrile] |  |
| 5 to 15 µM | < 5 µM | < 5 µM | < 5 µM | < 5 µM | < 5 µM | < 5 µM | COc1ncccc1-c1ccnc(Nc2cccc(S(N)(=O)=O)c2)n1 [Compound 99, 3-[4-(2-Methoxy-pyridin-3-yl)-pyrimidin-2-ylamino]-benzenesulfonamide] |  |
| > 50 µM | > 50 µM | 15 to 50 µM | 5 to 15 µM | < 5 µM | < 5 µM | < 5 µM | COc1ccc(-c2ccnc(Nc3cccc(S(C)(=O)=O)c3)n2)c(OC)n1 [Compound 119, [4-(2,6-Dimethoxy-pyridin-3-yl)-pyrimidin-2-yl]-(3-methanesulfonyl-phenyl)-amine] |  |
